Assay results: patent publication US20250270213A1, “PI3Ka INHIBITORS” (Synnovation Therapeutics, Inc., priority 2022, published 2025)
pIC50: −log10 of the molar value.

What follows are compounds tested on T47D (PIK3CA H1047R) cells (assay: pS473 AKT assay with 2.5% FBS, T47D cells). Details: Homo sapiens, pSer473 AKT, DMEM with 2.5% FBS, 2 h treatment, read-out: T47D_IC50.
Format: cell-based
Procedure, shortened: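 T47D (PIK3CA H1047R) cells were switched to DMEM with 2.5% FBS and exposed to compounds for 2 h. After paraformaldehyde fixation, pSer473 AKT was detected by in-cell ELISA (rabbit primary, HRP anti-rabbit secondary, chemiluminescence); IC50 values were fitted from the concentration series.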

SMILES	pIC50
Cc1cc(C(C)Nc2ccc(Cl)nc2-c2cnn(C)c2)c2c(c1)c(=O)n(C)c1c2cnn1C1CCN(C)CC1 (centres unmarked) [Compound 158, 9-(1-((6-Chloro-2-(1-methyl-1H-pyrazol-4-yl)pyridin-3-yl)amino)ethyl)-4,7-dimethyl-3-(1-methylpiperidin-4-yl)-3,4-dihydro-5H-pyrazolo[3,4-c]isoquinolin-5-one]	> 6.00
Cc1cc(C(C)Nc2ccc(Cl)nc2-c2ncn(C)n2)c2c(c1)c(=O)n(C)c1c2cnn1C1CCN(C)CC1 (centres unmarked) [Compound 159, 9-[1-[[6-chloro-2-(1-methyl-1,2,4-triazol-3-yl)-3-pyridyl]amino]ethyl]-4,7-dimethyl-3-(1-methyl-4-piperidyl)pyrazolo[3,4-c]isoquinolin-5-one]	> 6.00
CCn1cc(-c2nc(Cl)ccc2NC(C)c2cc(C)cc3c(=O)n(C)c4c(cnn4C4CCN(C)CC4)c23)cn1 (centres unmarked) [Compound 160, 9-[1-[[6-chloro-2-(1-ethylpyrazol-4-yl)-3-pyridyl]amino]ethyl]-4,7-dimethyl-3-(1-methyl-4-piperidyl)pyrazolo[3,4-c]isoquinolin-5-one]	> 6.00
Cc1cc(C(C)Nc2ccc(Cl)nc2-c2nnn(C)n2)c2c(c1)c(=O)n(C)c1c2cnn1C1CCN(C)CC1 (centres unmarked) [Compound 161, 9-[1-[[6-chloro-2-(2-methyltetrazol-5-yl)-3-pyridyl]amino]ethyl]-4,7-dimethyl-3-(1-methyl-4-piperidyl)pyrazolo[3,4-c]isoquinolin-5-one]	> 6.00
Cc1cc(C(C)Nc2ccc(Cl)nc2-c2nnco2)c2c(c1)c(=O)n(C)c1c2cnn1C1CCN(C)CC1 (centres unmarked) [Compound 162, 9-[1-[[6-chloro-2-(1,3,4-oxadiazol-2-yl)-3-pyridyl]amino]ethyl]-4,7-dimethyl-3-(1-methyl-4-piperidyl)pyrazolo[3,4-c]isoquinolin-5-one]	> 6.00
CNC(=O)c1ccc(-c2nc(Cl)ccc2NC(C)c2cc(C)cc3c(=O)n(C)c4c(cnn4C4CCN(C)CC4)c23)cn1 (centres unmarked) [Compound 163, 5-[6-chloro-3-[1-[4,7-dimethyl-3-(1-methyl-4-piperidyl)-5-oxo-pyrazolo[3,4-c]isoquinolin-9-yl]ethylamino]-2-pyridyl]-N-methyl-pyridine-2-carboxamide]	> 6.00
Cc1cc(C(C)Nc2ccc(Cl)nc2-c2noc(=O)[nH]2)c2c(c1)c(=O)n(C)c1c2cnn1C1CCN(C)CC1 (centres unmarked) [Compound 164, 3-[6-chloro-3-[1-[4,7-dimethyl-3-(1-methyl-4-piperidyl)-5-oxo-pyrazolo[3,4-c]isoquinolin-9-yl]ethylamino]-2-pyridyl]-4H-1,2,4-oxadiazol-5-one]	> 6.00
Cc1cc(C(C)Nc2ccc(Cl)nc2-c2cn(C)nc2C)c2c(c1)c(=O)n(C)c1c2cnn1C1CCN(C)CC1 (centres unmarked) [Compound 165, 9-[1-[[6-chloro-2-(1,3-dimethylpyrazol-4-yl)-3-pyridyl]amino]ethyl]-4,7-dimethyl-3-(1-methyl-4-piperidyl)pyrazolo[3,4-c]isoquinolin-5-one]	> 6.00
Cc1cc(C(C)Nc2ccc(Cl)nc2-c2ccc(=O)n(C)c2)c2c(c1)c(=O)n(C)c1c2cnn1C1CCN(C)CC1 (centres unmarked) [Compound 166, 9-[1-[[6-chloro-2-(1-methyl-6-oxo-3-pyridyl)-3-pyridyl]amino]ethyl]-4,7-dimethyl-3-(1-methyl-4-piperidyl)pyrazolo[3,4-c]isoquinolin-5-one]	> 6.00
Cc1cc(C(C)Nc2ccc(Cl)nc2N2CCC(O)CC2)c2c(c1)c(=O)n(C)c1c2cnn1C1CCN(C)CC1 (centres unmarked) [Compound 167, 9-[1-[[6-chloro-2-(4-hydroxy-1-piperidyl)-3-pyridyl]amino]ethyl]-4,7-dimethyl-3-(1-methyl-4-piperidyl)pyrazolo[3,4-c]isoquinolin-5-one]	> 6.00
Cc1cc(C(C)Nc2ccc(Cl)nc2-c2ccncc2F)c2c(c1)c(=O)n(C)c1c2cnn1C1CCN(C)CC1 (centres unmarked) [Compound 168, 9-[1-[[6-chloro-2-(3-fluoro-4-pyridyl)-3-pyridyl]amino]ethyl]-4,7-dimethyl-3-(1-methyl-4-piperidyl)pyrazolo[3,4-c]isoquinolin-5-one]	> 6.00
Cc1cc(C(C)Nc2ccc(Cl)nc2-c2cccnc2)c2c(c1)c(=O)n(C)c1c2cnn1C1CCN(C)CC1 (centres unmarked) [Compound 169, 9-[1-[[6-chloro-2-(3-pyridyl)-3-pyridyl]amino]ethyl]-4,7-dimethyl-3-(1-methyl-4-piperidyl)pyrazolo[3,4-c]isoquinolin-5-one]	> 6.00
CNC(=O)c1ccc(-c2nc(C)ccc2NC(C)c2cc(C)cc3c(=O)n(C)c4c(cnn4C4CCN(C)CC4)c23)cn1 (centres unmarked) [Compound 170]	> 6.00
Cc1cc(C(C)Nc2ccc(Cl)nc2-c2ccn(C)c(=O)c2)c2c(c1)c(=O)n(C)c1c2cnn1C1CCN(C)CC1 (centres unmarked) [Compound 171, 9-[1-[[6-chloro-2-(1-methyl-2-oxo-4-pyridyl)-3-pyridyl]amino]ethyl]-4,7-dimethyl-3-(1-methyl-4-piperidyl)pyrazolo[3,4-c]isoquinolin-5-one]	> 6.00
Cc1cc(C(C)Nc2ccc(Cl)nc2-c2cnn(C)c2)c2c(c1)c(=O)n(C)c1c2cnn1C1CCN(CC(C)(C)O)CC1 (centres unmarked) [Compound 172, 9-[1-[[6-Chloro-2-(1-methylpyrazol-4-yl)-3-pyridyl]amino]ethyl]-3-[1-(2-hydroxy-2-methyl-propyl)-4-piperidyl]-4,7-dimethyl-pyrazolo[3,4-c]isoquinolin-5-one]	> 6.00
Cc1cc(C(C)Nc2ccc(Cl)nc2-c2cnn(C)c2)c2c(c1)c(=O)n(C)c1c2cnn1C1CCN(C[C@@H](C)O)CC1 (stereo partly drawn) [Compound 173, 9-[1-[[6-chloro-2-(1-methylpyrazol-4-yl)-3-pyridyl]amino]ethyl]-3-[1-[(2R)-2-hydroxypropyl]-4-piperidyl]-4,7-dimethyl-pyrazolo[3,4-c]isoquinolin-5-one]	> 6.00
Cc1cc(C(C)Nc2ccc(Cl)nc2-c2cnn(C)c2)c2c(c1)c(=O)n(C)c1c2cnn1C1CCN(C[C@H](C)O)CC1 (stereo partly drawn) [Compound 174, 9-[1-[[6-chloro-2-(1-methylpyrazol-4-yl)-3-pyridyl]amino]ethyl]-3-[1-[(2S)-2-hydroxypropyl]-4-piperidyl]-4,7-dimethyl-pyrazolo[3,4-c]isoquinolin-5-one]	> 6.00
Cc1cc(C(C)Nc2ccc(Cl)nc2-c2ncn(C)n2)c2c(c1)c(=O)n(C)c1c2cnn1C1CCN(CC(C)(C)O)CC1 (centres unmarked) [Compound 175, 9-(1-((6-chloro-2-(1-methyl-1H-1,2,4-triazol-3-yl)pyridin-3-yl)amino)ethyl)-3-(1-(2-hydroxy-2-methylpropyl)piperidin-4-yl)-4,7-dimethyl-3,4-dihydro-5H-pyrazolo[3,4-c]isoquinolin-5-one]	> 6.00
Cc1cc(C(C)Nc2ccc(Cl)nc2-c2ncn(C)n2)c2c(c1)c(=O)n(C)c1c2cnn1C1CCNCC1 (centres unmarked) [Compound 176, 9-(1-((6-Chloro-2-(1-methyl-1H-1,2,4-triazol-3-yl)pyridin-3-yl)amino)ethyl)-4,7-dimethyl-3-(piperidin-4-yl)-3,4-dihydro-5H-pyrazolo[3,4-c]isoquinolin-5-one]	> 6.00
Cc1cc(C(C)Nc2ccc(Cl)nc2-c2ncn(C)n2)c2c(c1)c(=O)n(C)c1c2cnn1C1CCN(CCO)CC1 (centres unmarked) [Compound 177, 9-[1-[[6-Chloro-2-(1-methyl-1,2,4-triazol-3-yl)-3-pyridyl]amino]ethyl]-3-[1-(2-hydroxyethyl)-4-piperidyl]-4,7-dimethyl-pyrazolo[3,4-c]isoquinolin-5-one]	> 6.00
Cc1cc(C(C)Nc2ccc(Cl)nc2-c2ncn(C)n2)c2c(c1)c(=O)n(C)c1c2cnn1C1CCN(Cc2nccn2C)CC1 (centres unmarked) [Compound 178, 9-(1-((6-chloro-2-(1-methyl-1H-1,2,4-triazol-3-yl)pyridin-3-yl)amino)ethyl)-4,7-dimethyl-3-(1-((1-methyl-1H-imidazol-2-yl)methyl)piperidin-4-yl)-3,4-dihydro-5H-pyrazolo[3,4-c]isoquinolin-5-one]	> 6.00
Cc1cc(C(C)Nc2ccc(Cl)nc2-c2ncn(C)n2)c2c(c1)c(=O)n(C)c1c2cnn1C1CCN(C2COC2)CC1 (centres unmarked) [Compound 179, 9-(1-((6-chloro-2-(1-methyl-1H-1,2,4-triazol-3-yl)pyridin-3-yl)amino)ethyl)-4,7-dimethyl-3-(1-(oxetan-3-yl)piperidin-4-yl)-3,4-dihydro-5H-pyrazolo[3,4-c]isoquinolin-5-one]	> 6.00
Cc1cc(C(C)Nc2ccc(Cl)nc2-c2ncn(C)n2)c2c(c1)c(=O)n(C)c1c2cnn1C1CCN(CCC#N)CC1 (centres unmarked) [Compound 180, 3-[4-[9-[1-[[6-Chloro-2-(1-methyl-1,2,4-triazol-3-yl)-3-pyridyl]amino]ethyl]-4,7-dimethyl-5-oxo-pyrazolo[3,4-c]isoquinolin-3-yl]-1-piperidyl]propanenitrile]	> 6.00
Cc1cc(C(C)Nc2ccc(Cl)nc2-c2ncn(C)n2)c2c(c1)c(=O)n(C)c1c2cnn1C1CCN(CC(F)F)CC1 (centres unmarked) [Compound 181, 9-(1-((6-Chloro-2-(1-methyl-1H-1,2,4-triazol-3-yl)pyridin-3-yl)amino)ethyl)-3-(1-(2,2-difluoroethyl)piperidin-4-yl)-4,7-dimethyl-3,4-dihydro-5H-pyrazolo[3,4-c]isoquinolin-5-one]	> 6.00
CC(=O)N1CCC(n2ncc3c4c(C(C)Nc5ccc(Cl)nc5-c5cnn(C)c5)cc(C)cc4c(=O)n(C)c32)CC1 (centres unmarked) [Compound 182, 3-(1-Acetylpiperidin-4-yl)-9-(1-((6-chloro-2-(1-methyl-1H-pyrazol-4-yl)pyridin-3-yl)amino)ethyl)-4,7-dimethyl-3,4-dihydro-5H-pyrazolo[3,4-c]isoquinolin-5-one]	> 6.00
Cc1cc(C(C)Nc2ccc(Cl)nc2N2CCC(O)CC2)c2c(c1)c(=O)n1c3c2cnn3CCC1 (centres unmarked) [Compound 291, 10-(1-((6-chloro-2-(4-hydroxypiperidin-1-yl)pyridin-3-yl)amino)ethyl)-8-methyl-4,5-dihydro-3H,6H-2,2a,5a-triazaaceanthrylen-6-one]	> 6.00
